# Measured values published in patent US5852008A, “Heteroatom substituted benzoyl derivatives that enhance synaptic response mediated by receptors” (The Regents of the University of California, priority 1995, dated 1998).
# Where two headings read alike, the source gives them in different places.
# Experiments:
# AMPA receptors = assay: Field EPSP in rat hippocampal slices (field CA1): amplitude and area of AMPA receptor-mediated synaptic responses; type: cell-based, rat (Sprague-Dawley)
# Experimental: The physiological effects of invention compounds can be tested in vitro with slices of rat hippocampus as follows. Excitatory responses (field EPSPs) are measured in hippocampal slices which are maintained in a recording chamber continuously perfused with artificial cerebrospinal fluid (ACSF).
# To conduct these tests, the hippocampus was removed from anesthetized, 2 month old Sprague-Dawley rats and in vitro slices (400 micrometers thick) were prepared and maintained in an interface chamber at 35° C. using conventional techniques [see, for example, Dunwiddie and Lynch, J. Physiol. Vol. 276: 353-367 (1978)]. The chamber was constantly perfused at 0.5 ml/min with ACSF containing (in mM): NaCl 124, KCl 3, KH2 PO4 1.25, MgSO4 2.5, CaCl2 3.4, NaHCO3 26, glucose 10 and L-ascorbate 2. A bipolar nichrome stimulating electrode was positioned in the dendritic layer (stratum radiatum) of the hippocampal subfield CA1 close to the border of subfield CA3.
# Current pulses (0.1 msec) through the stimulating electrode activate a population of the Schaffer-commissural (SC) fibers which arise from neurons in the subdivision CA3 and terminate in synapses on the dendrites of CA1 neurons. Activation of these synapses causes them to release the transmitter glutamate. Glutamate binds to the postsynaptic AMPA receptors which then transiently open an associated ion channel and permit a sodium current to enter the postsynaptic cell. This current results in a voltage in the extracellular space (the field excitatory postsynaptic potential or field "EPSP") which is recorded by a high impedance recording electrode positioned in the middle of the stratum radiatum of CA1.
# For the experiments summarized in FIG. 1, the intensity of the stimulation current was adjusted to produce half-maximal EPSPs (typically about 1.5-2.0 mV). Paired stimulation pulses were given every 40 sec with an interpulse interval of 200 msec (see below). The field EPSPs of the second response were digitized and analyzed to determine amplitude, half-width, and response area. If the responses were stable for 15-30 minutes (baseline), test compounds were added to the perfusion lines for a period of about 15 minutes. The perfusion was then changed back to regular ACSF.
# Paired-pulse stimulation was used since stimulation of the SC fibers, in part, activates interneurons which generate an inhibitory postsynaptic potential (IPSP) in the pyramidal cells of CA1. This feed forward IPSP typically sets in after the EPSP reaches its peak. It accelerates the repolarization and shortens the decay phase of the EPSP, and thus could partially mask the effects of the test compounds. One of the relevant features of the feed-forward IPSP is that it can not be reactivated for several hundred milliseconds following a stimulation pulse. This phenomenon can be employed to advantage to eliminate IPSP by delivering paired pulses separated by 200 milliseconds and using the second ("primed") response for data analysis.
# These effects are mirrored in the field EPSP, as reported in the literature [see, for example, Staubli et al., Psychobiology supra; Xiao et al., Hippocampus supra; Staubli et al., Hippocampus Vol. 2: 49-58 (1992)].
# The variables set forth in the table refer to the following generic structure: [drawing 33]
# [1] = PET biodistribution of 11C-labelled Invention Compound II after i.p. injection
# Description: To test the ability of invention compounds to pass the blood-brain barrier, Invention Compound II was labelled with carbon-11.
# Radiolabelled Invention Compound II (see the table above) is synthesized by the following scheme (wherein the numbers in parenthesis refer to the quantity of reagent used, in millimoles): [drawing 34] wherein Ar is aryl (such as methylenedioxybenzene), Im is imidazole (thus, ImHCl is imidazole hydrochloride), and R is an alkyl or alkylene radical (so that R2 NH is, for example, piperidine). ^11 C-labelled CO2 is produced by cyclotron irradiation and subsequently used in the above-described synthetic scheme. The time to complete the synthesis is about […] ([…] the half-life of carbon-11). After purification of [^11 C]II on C18 Sep Pak, 260 μCi was diluted with 20 mg of nonradioactive II as carrier in a 1-ml solution of 23% propylene glycol and 10% ethanol in physiologically-buffered saline in order to simulate the dosage of 100 mg/Kg that was used in behavioral studies. The final 1 ml of solution was administered to a 200 g rat under halothane anesthesia (1.4-1.7% in oxygen) by intraperitoneal (i.p.) injection.
# Biodistribution of the radiotracer in the body of the rat was monitored by a positron camera (Scanditronix PC2048-15B) and the time-activity curves were constructed using a Vax 3500 (Digital Equipment Corporation) and shown in FIG. 5.
# AMPA receptor = settings: cited from earlier work
# [2] = percent increase in field EPSP amplitude; log dose/response; maximal response of 85% increase assumed where solubility was limiting; read-out: EC50 (field EPSP amplitude)
# [3] = read-out: EC50 (field EPSP amplitude); percent increase in field EPSP amplitude; log dose/response; maximal response of 85% increase assumed where solubility was limiting
# [4] = after i.p. injection, 100 mg/kg
smiles,measurement,setting,value
"O=C(c1ccc2nccnc2c1)N1CCCCC1 [Invention Compound XIV, 1-(quinoxalin-6-ylcarbonyl)-piperidine]",EC50,AMPA receptors; [2],0.3 mM
O=C1CCCC1C(=O)c1ccc2c(c1)OCO2 (centres unmarked) [Invention Compound IV],EC50,AMPA receptors; [3],0.9 mM
"O=C(c1ccc2nccnc2c1)N1CC=CCC1 [Invention Compound XIII, 1-(quinoxalin-6-ylcarbonyl)-1,2,3,6-tetrahydropyridine]",EC50,AMPA receptors; [2],0.05 mM
O=C1CCCN1C(=O)c1ccc2c(c1)OCO2 [Invention Compound XVI],EC50,AMPA receptors; [3],2 mM
O=C(c1ccc2c(c1)OCCO2)N1CC=CC1 [Invention Compound VIII],EC50,AMPA receptors; [2],3 mM
"O=C(c1ccc2c(c1)OCO2)N1CCCCCC1 [Invention Compound VII, 1-(1,3-benzodioxol-5-ylcarbonyl)-hexamethyleneimine]",EC50,AMPA receptors; [2],4 mM
"CN(C)c1ccc(C(=O)N2CC=CCC2)cc1 [Invention Compound XV, N-(4-dimethylamino)benzoyl-1,2,3,6-tetrahydropyridine]",EC50,AMPA receptors; [2],1.7 mM
O=C(c1ccc2ncoc2c1)N1CC=CCC1 [Invention Compound XI],EC50,AMPA receptors; [2],3 mM
"O=C(c1ccc2c(c1)OCO2)N1CCCCC1 [Invention Compound II, 1-(1,3-benzodioxol-5-ylcarbonyl)-piperidine]",EC50,AMPA receptors; [2],1.5 mM
same,time of peak uptake in brain,[1]; [4],about 5 minutes
same,time of peak uptake in heart,[1]; [4],about 5 minutes
same,time of peak uptake in liver,[1]; [4],about 3 minutes
same,time of peak uptake in soft tissues,[1]; [4],about 17 minutes
same,passage through the blood-brain barrier,[1]; i.p.,passes freely through the blood-brain barrier
same,brain distribution relative to head excluding the cranial cavity,"[1]; rat, in vivo, ip",approximately equal to that of the head excluding the cranial cavity
same,decline of levels in liver after peak,"[1]; rat, in vivo, ip",declined markedly for the first 5 minutes after peaking and then more gradually
same,"decline of levels in the other three tissues (heart, brain, soft tissue) after peak","[1]; rat, in vivo, ip",declined very gradually after peaking
same,entry into and residence in brain (target tissue),"[1]; rat, in vivo, ip",relatively rapid and stayed in the brain for an extended period
same,order of tissue uptake,"[1]; rat, in vivo, ip","liver showed the maximum uptake, followed by heart"
COc1ccc(C(=O)NCCCC(=O)O)cc1 [anisoyl-GABA],aniracetam-like effects,AMPA receptor; metabolite of aniracetam,no aniracetam-like effects
"CC1Oc2ccc(C(=O)N3CCCCC3)cc2O1 (racemic) [Invention Compound V, (R,S)-1-(2-methyl-1,3-benzodioxol-5-ylcarbonyl)-piperidine]",EC50,AMPA receptors; [2],1.1 mM
"O=C(c1ccc2c(c1)OCO2)N1CCCC1 [Invention Compound VI, 1(1,3-Benzodioxol-5-ylcarbonyl)-pyrrolidine]",EC50,AMPA receptors; [2],1.2 mM
O=C(c1ccc2ocnc2c1)N1CC=CCC1 [Invention Compound IX],EC50,AMPA receptors; [2],4 mM
O=C(c1ccc2[nH]cnc2c1)N1CC=CCC1 [Invention Compound XII],EC50,AMPA receptors; [2],5 mM
"O=C(c1ccc2c(c1)OCO2)N1CC=CCC1 [Invention Compound III, 1-(1,3-benzodioxol-5-ylcarbonyl)-1,2,3,6-tetrahydropyridine]",EC50,AMPA receptors; [2],0.8 mM
COc1ccc(C(=O)N2CC[C@@H](O)C2=O)cc1 [(R)-1-p-anisoyl-3-hydroxy-2-pyrrolidinone],facilitation of AMPA receptor mediated responses,AMPA receptor; nootropics tested in slices,facilitate AMPA receptor mediated responses
